From paper PMC10820135, “Pharmacokinetic, Tissue Distribution, Metabolite, and Toxicity Evaluation of the Matrine Derivative, (6aS, 10S, 11aR, 11bR, 11cS)-10-Methylaminododecahydro-3a, 7a-Diaza-benzo (de) Anthracene-8-thione” (Molecules, 2024)

Experiments:
[1] = Metabolite profiling of MASM in rats by UHPLC-QQQ-MS/MS; assay type: in vivo, Sprague-Dawley rats; details: rat
Experimental: The identification of the in vivo metabolites of MASM was conducted using UHPLC-QQQ-MS/MS combined with standard references and deuterium-labeled MASM. The findings are presented in Table 2, while the proposed primary metabolic pathway of MASM in rats is depicted in Figure 4. To provide a comprehensive understanding of the metabolite identification process, three representative metabolites of MASM are presented, with their identification relying on primary and secondary mass spectrometry data, standard references, and deuterium-labeled MASM. The remaining metabolites are detailed in Supplementary File S4. For instance, the identification of the metabolite, M1, as a demethylation product of MASM was accomplished through the utilization of MS, MS/MS data, and the standard reference. […] Moreover, the identification of M1 as the demethylation metabolite of MASM was accomplished using the standard reference synthesized in our laboratory. […] Secondly, the metabolite, M2, of MASM was identified as the dehydrogenation product of MASM through the utilization of MS and MS/MS data. […] Consequently, M2 was identified as a dehydrogenation metabolite of M1. Thirdly, through the utilization of MS, MS/MS data, and deuterium-labeled MASM, the metabolite, M8, of MASM was determined to be a dehydrogenation product of MASM. […] The major MS/MS fragment ions of M8 were found at m/z 111.92, 178.77, 150.16, and 135.85, which aligned with the characteristic cleavage pattern of matrine. Additionally, our lab synthesized deuterium-labeled MASM to further support our proposed structure. […] Consequently, M8 was identified as a dehydrogenation metabolite of MASM. The EIC, MS/MS spectrum of M8 and deuterium-labeled MASM are all depicted in Figure 5C.
UHPLC analysis was performed using a Thermo Accela AS system, employing an ACQUITY UPLC®BEH C18 (Waters Corporation, Wexfords, Ireland) (1.7 µm, 2.1 × 100 mm) column and a binary solvent system consisting of water containing 0.1% formic acid as mobile phase A and acetonitrile as mobile phase B. For pharmacokinetic evaluation, the gradient elution was set as follows: 97% A from 0 to 2 min, 97–70% A from 2 to 3 min, 70–20% A from 3 to 3.5 min, 20% A from 3.5 to 3.6 min, 20–97% A from 3.6 to 3.7 min, and 97% A from 3.7 to 5 min. For the metabolic test, the gradient elution in full scan mode was set as follows: 97% A from 0 to 2 min, 97–70% A from 2 to 4 min, 70–20% A from 4 to 6 min, 20% A from 6 to 7 min, 20–97% A from 7 to 8 min, and 97% A from 8 to 10 min. The flow rate was 0.2 mL/min, with a temperature of 40 °C maintained and an injection volume of 5 μL. The QQQ-MS/MS analysis was conducted using a Thermo TSQ QUANTUM ACCESS MAX system equipped with an electrospray ionization (ESI) source. The spray voltages were set at 4.0 kV and 2.5 kV for positive and negative ion modes, respectively; capillary and vaporizer temperatures were 320 °C and 350 °C, respectively; sheath and aux gas pressures were 35 and 10 psi, respectively.
Seventy Sprague-Dawley rats were fasted overnight before dosing, with free access to water. Subsequently, the rats were randomly and equally divided into 7 groups: the control groups received 3 different routes of administration: intravenous, intraperitoneal, and intragastric (NS, saline 1 mL/100 g); MASM intraperitoneal group (A, i.p. 80 mg/kg), MASM intragastrical group (B, i.g. 60 mg/kg), MASM intravenous group (C, i.v. 15 mg/kg), and DMASM intragastrical group (D, i.g. 60 mg/kg). It is important to note that the recommended clinical dose of matrine injection is 0.15 g, which is equivalent to a dosage of 15 mg/kg in rats. MASM was administered via tail vein injection at a dosage of 1 mL/100 g for intravenous dosing, while for intraperitoneal dosing, MASM was injected at the lower-right side of the abdomen of rats. […]

[2] = Stability of MASM in plasma QC samples; assay type: in vitro ADME; details: QC samples: autosampler 4℃ 8 h, -80℃ 30 days, three freeze-thaw cycles
Experimental: determined by calculating the RSD of 6 samples analyzed on the same day, while the inter-day precision was determined by calculating the RSD of 3 analytical batches analyzed over 3 consecutive days.
1.4 Extraction recovery and matrix effect
The extraction recovery was in assessed by comparing the peak area of the blank […]
i n E q . […]
Extraction recovery=Ap/Ax×100% Eq. (1)
Matrix effect=Ax/As×100% Eq. (2)
Ap: 10 μl of high (H), medium (M), and low (L) concentration of standard solution and 300 μl of IS were added to 90 μl of blank plasma, respectively, then pre-processed by sample pretreatment method and injected to obtain the peak area A p. […]
The stability of analytes in plasma was assessed by analyzing peak area in three different concentration QC samples. The long-term stability was evaluated by analyzing samples that had been stored at a temperature of -80℃ for a duration of 30 days. […]
freeze-thaw stability was assessed by analyzing samples that had undergone three freeze-thaw cycles, transitioning from a temperature of -80℃ to 25℃. Post-preparative stability was assessed by analyzing samples that had been stored in the autosampler at 4℃ for a duration of 8 h. […]
0.990 across the relevant concentration ranges (Supplementary Table S1). The lower limit of the quantitation (LLOQ) was determined to be 5.03 ng/ml. […]

CNC1CC(=S)N2CC3CCCN4CCCC(C34)C2C1 [MASM, (6aS, 10S, 11aR, 11bR, 11cS)-10-methylaminododecahydro-3a, 7a-diaza-benzo (de) anthracene-8-thione]
number of in vivo metabolites identified [1]: 10 | primary metabolic reactions (phase I) [1]: oxidation, reduction, and hydroxylation | stability in plasma [2]: stable
